The target in assay [1] is DNA gyrase (Escherichia coli). The assay can be described thus: Inhibition effect on Escherichia coli Wild Type DNA gyrase Supercoiling activity.
Assay [2] addresses DNA gyrase (Escherichia coli). The assay can be described thus: Inhibition of Escherichia coli Quinolone resistant gyrase Supercoiling activity.

Structures are written as SMILES.

The IC50 is the concentration needed to halve the response being measured. Read a high IC50 as weaker potency in that assay. As to `N[C@H]1CCCN(c2c(F)cc3c(=O)c(C(=O)O)cn(C4CC4)c3c2F)C1`, the values for the concentration for half-maximal inhibition (IC50) in assay [1] and in assay [2] were 8.8 µM and 71.5 µM, respectively.

Values taken from BindingDB's records for doi:10.1021/jm030272n (Procter & Gamble Pharmaceuticals, 2003).
